Source: patent US20080176952A1, “Management of Ophthalmologic Disorders, Including Macular Degeneration” (priority 2004, published 2008)
Where two headings read alike, the source gives them in different places. One block for each compound: values may come before it.

How the values were obtained:
[1] = target: T1, sRPE65 (Bos taurus, UniProt Q28175); assay: Fluorescence binding of retinoids to purified sRPE65; design: species or system bovine; conditions: 0.37 μM sRPE65, phosphate buffered saline pH 7.4, 1% CHAPS
T1 construct: Frozen bovine eyecups devoid of retinas were purchased from W. L. Lawson Co; tissue W. L. Lawson Co; host or cells: bovine eyecups (retinal pigment epithelium)
T1 sequence (Q28175 whole entry): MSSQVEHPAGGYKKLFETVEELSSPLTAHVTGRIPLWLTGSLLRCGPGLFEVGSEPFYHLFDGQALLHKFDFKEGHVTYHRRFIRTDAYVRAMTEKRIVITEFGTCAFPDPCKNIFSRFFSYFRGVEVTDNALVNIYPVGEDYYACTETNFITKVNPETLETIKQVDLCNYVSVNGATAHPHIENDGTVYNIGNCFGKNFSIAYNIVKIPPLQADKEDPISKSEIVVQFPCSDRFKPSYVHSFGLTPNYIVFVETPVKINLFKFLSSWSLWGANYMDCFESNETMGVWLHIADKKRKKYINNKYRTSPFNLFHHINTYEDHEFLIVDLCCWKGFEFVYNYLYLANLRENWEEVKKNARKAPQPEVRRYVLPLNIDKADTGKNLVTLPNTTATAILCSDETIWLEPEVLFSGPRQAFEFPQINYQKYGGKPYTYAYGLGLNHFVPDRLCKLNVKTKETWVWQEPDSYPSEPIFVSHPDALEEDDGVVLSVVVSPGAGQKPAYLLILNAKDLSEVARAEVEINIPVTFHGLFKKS
Experimental: (§1) Fluorescence binding assays: RPE65 in PBS, 1% CHAPS, pH 7.4 was used in the fluorometric titration studies. Protein concentrations were measured by a modified Lowry method (Lowry et al., 1951). All titrations were performed at 25° C. The samples in PBS buffer were excited at 280 nm and the fluorescence was scanned from 300 to 500 nm. Fluorescence measurements, using 450 μL quartz cuvettes with a 0.5 cm path length, were made at 25° C. on a Jobin Yvon Instruments, Fluoromax 2 employing the right-angle detection method.
The fluorescence of the protein solution was measured after equilibrating it at 25° C. for 10 min. […] In each titration, to a 250 μL solution of the protein an equal amount of retinoid, typically 0.2 μL. was added and thoroughly mixed before allowing it to equilibrate for 10 min prior to recording the fluorescence intensity. […] The binding constant (KD) was calculated from the fluorescence intensity by using the following equation (Gollapalli et al., 2003).
As mentioned above, membrane associated RPE65 (mRPE65) stereospecifically binds all-trans-retinyl palmitate. In this example, the binding of retinoids to sRPE65 is measured by the fluorescence methodology already described (Gollapalli, D. R., Maiti, P., Rando, R. R. (2003) RPE65 operates in the vertebrate visual cycle by stereospecifically binding all-trans-retinyl esters. Biochemistry 42, 11824-30). […]

[2] = target: mouse RPE65; assay: Constants of affinity (Kds) for mouse RPE65; type: binding; conditions: read-out: Kd (constant of affinity) for mouse RPE65
Experimental: as §1
(§2) The fluorescence of the protein solution was measured after equilibrating it at 25° C. for 10 min. The sample was then titrated with a solution of retinoid dissolved in dimethyl sulfoxide. In each titration, to a 250 μL solution of the protein an equal amount of retinoid, typically 0.2 μL. was added and thoroughly mixed before allowing it to equilibrate for 10 min prior to recording the fluorescence intensity. […] The binding constant (KD) was calculated from the fluorescence intensity by using the following equation (Gollapalli et al., 2003).
The constants of affinity (Kds) of several compounds for mouse RPE65 were determined. […] Thus, the potency of binding is a function of the ester chain length, i.e., the longer the chain length, the stronger the affinity for RPE65 is and the stronger the antagonist is.

[3] = target: T2, RPE65 (Bos taurus, UniProt Q28175); assay: Fluorescence binding assay of retinoids and analogs to purified RPE65; design: species or system bovine
T2 construct: Frozen bovine eyecups devoid of retinas were purchased from W. L. Lawson Co; tissue W. L. Lawson Co; host or cells: bovine eyecups (retinal pigment epithelium)
T2 sequence (Q28175 whole entry): as above
Experimental: Purification of mRPE65, sRPE65 and rHRPE65: Purification was performed as described before (Ma et al., 2001). The purities of these proteins were verified by silver staining or Coomassie staining and Western blot (1:4000 primary antibody-1 h at room temperature and 1:4000 secondary antibody-0.5 h at room temperature).
as §1, §2
where P0=Total protein concentration,
n=number of independent binding sites, R0=Total retixioid concentration at each addition, KD=dissociation constant, Fmax=Fluorescence intensity at saturation, and F0=Initial fluorescence intensity.

[4] = test system: 11-cis-retinol biosynthesis (IMH activity) in retinal pigment epithelial membrane system; assay: Effect on 11-cis-retinol biosynthesis (IMH activity) in RPE membranes; type: biochemical, bovine
Experimental: A control reaction mixture without any inhibitor was also incubated at room temperature for 15 min. At the end of the min incubation, all-trans-retinol [11-12-^3H2] (0.2 μM) was added to the reaction mixtures (100 mM Tris pH 8.0, […] of RPE protein, 0.2% BSA 100 μM of DPPC, 1 mM of DTT and 0.2 μM all-trans-retinol [11-12-^3H2]) and incubated at room temperature for 30 min. At the end of this 30 minutes of incubation, an aliquot of the reactions were quenched to verify the equal addition of all-trans-retinol [11,12-^3H2] and the effect of these inhibitors on LRAT. After this the control reaction mixture was incubated with atRA (60 & 6 μM), 13cRA (60 & 6 μM) or 4-HPR (60 & 6 μM) for 15 min. Now all the reaction mixtures were incubated with 30 μM of apo-rCRALBP (100 mM Tris pH 8.0, 7.7 μg of RPE protein, 0.2% BSA 100 μM of DPPC, 1 mM of DTT 30 μM apo-rCRALBP and 0.2 μM all-trans-retinol [11-12-^3H2]) at 37° C. for 30 minutes. At the end of this incubation period the 200 μL reaction mixture was quenched by the addition of 750 μL ice cold methanol after which 100 μL of 1M sodium chloride solution was added, and 500 μl hexane (containing butylated hydroxy toluene at 1 mg/mL) was added to effect extraction of the retinoids. The retinoids were analyzed as previously described (27). The amount of 11-cis-retinol formed was used as a measurement of IMH activity. All experiments were performed in triplicate and the average values of these measurements were used for analysis.
A control reaction mixture without any inhibitor was also incubated at room temperature for 15 min. At the end of the min incubation, all-trans-retinol [11-12-^3H2] (0.2 μM) was added to the reaction mixtures (100 mM Tris pH 8.0, 76.7 μg of RPE protein, 0.2% BSA 100 μM of DPPC, 1 mM of DTT and 0.2 μM all-trans-retinol [11-12-^3H2]) and incubated at room temperature for 30 min. […] The retinoids were analyzed as previously described (27). […]

[5] = test system: A2E formation; assay: In vitro A2E formation in the presence of aromatic amine
Experimental: 100 mg (355 μmoles) of all-trans-retinal was dissolved in 3 mL followed by the addition of 9.5 μL of glacial acetic acid 9.5 μL of ethanolamine (155 μmoles). This solution was aliquoted into 300 μL fractions. 3-aminoethylbenzoate (15.5 μmoles) was added to the samples at 0, 2, 3.75, 14, 16.25, 18.0833 19.917 23.75 and 48 hrs. […] The solutions were shaken at room temperature for 48 hrs. The solutions were then kept at −80° C. and 15 μL was diluted to 250 μL (methanol). The solutions (15 μL) were then analyzed on a reverse phase (C18-5 μm-4.6 mm×150 mm) column on a linear gradient 85%-96% methanol/water and UV detector at 430 nm to determine the amount of A2E formation. The percent A2E formation was compared to A2E formation at 48 h in the absence of aromatic amine.

[6] = antagonist of RPE65, read-out: KD
[7] = purified RPE65, PBS, 1% CHAPS, pH 7.4, 25° C., N=4, read-out: average KD for binding to RPE65

Compound: CCCCCCCCCCCCCCCCOC/C=C(C)/C=C/C=C(C)/C=C/C1=C(C)CCCC1(C)C [palmityl retinyl ether]
- Kd [2]: 0.021 µM
- Kd [3, 6]: 0.025 µM

Compound: CC1=C(/C=C/C(C)=C/C=C/C(C)=C/C(=O)Nc2ccc(O)cc2)C(C)(C)CCC1 [N-(4-hydroxyphenyl)retinamide, reference compound]
- Kd [3, 7]: ~3.55 µM
- inhibition of 11-cis-retinol formation ([4]; membranes pre-incubated with the inhibitor before vitamin A (FIG. 8)): substantially weaker

Compound: CC1=C(/C=C/C(C)=C/C=C/C(C)=C/CO)C(C)(C)CCC1 [all-trans-retinol, reference compound]
- Kd [1]: ~0.065 µM

Compound: CCCCCCCCCCCCCCCC(=O)NC/C=C(C)/C=C/C=C(C)/C=C/C1=C(C)CCCC1(C)C [4e]
- Kd [2]: 0.04 µM

Compound: CC1=C(/C=C/C(C)=C/C=C/C(C)=C\C(=O)O)C(C)(C)CCC1 [13-cis-retinoic acid]
- inhibition of 11-cis-retinol formation ([4]; membranes pre-incubated with vitamin A before inhibitor, 60 μM, data not shown): not susceptible to inhibition

Compound: CCCCCCCCCCCCCCCC(=O)CC/C=C(C)/C=C/C=C(C)/C=C/C1=C(C)CCCC1(C)C [4f]
- Kd [2]: 0.064 µM
- Kd [3, 6]: 0.064 µM

Compound: CCOC(=O)c1cccc(N)c1 [3-aminoethylbenzoate, ethyl 3-aminobenzoate]
- A2E formation % formation (48 Hrs = 100) ([5]; aromatic amine added at 0 hrs, read at 48 hrs): 3.98%
- A2E formation % formation (48 Hrs = 100) ([5]; aromatic amine added at 2 hrs, read at 48 hrs): 8.67%
- A2E formation % formation (48 Hrs = 100) ([5]; aromatic amine added at 3.75 hrs, read at 48 hrs): 7.71%
- A2E formation % formation (48 Hrs = 100) ([5]; aromatic amine added at 14 hrs, read at 48 hrs): 19.73%
- A2E formation % formation (48 Hrs = 100) ([5]; aromatic amine added at 16.25 hrs, read at 48 hrs): 19.25%
- A2E formation % formation (48 Hrs = 100) ([5]; aromatic amine added at 18.0833 hrs, read at 48 hrs): 23.70%
- A2E formation % formation (48 Hrs = 100) ([5]; aromatic amine added at 19.91667 hrs, read at 48 hrs): 27.65%
- A2E formation % formation (48 Hrs = 100) ([5]; aromatic amine added at 23.75 hrs, read at 48 hrs): 22.44%
- A2E formation % formation (48 Hrs = 100) ([5]; aromatic amine added at 48 hrs, reference = 100): 100.00%

Continued, values first:

- Kd [1]: ~1.2 µM
- Kd [2]: 0.047 µM
- Kd [3, 6]: 0.047 µM
- Kd [3, 7]: 0.047 µM
Compound: CCCCCCCCCCCCCCCC(=O)OC/C=C(C)/C=C/C=C(C)/C=C/C1=C(C)CCCC1(C)C [retinyl palmitate]

- Kd [2]: 1.3 µM
- Kd [3, 6]: 1.3 µM
Compound: CC(=O)OC/C=C(C)/C=C/C=C(C)/C=C/C1=C(C)CCCC1(C)C [retinyl acetate]

- Kd [2]: 0.235 µM
- Kd [3, 6]: 0.235 µM
Compound: retinyl hexanoate
